The IC50 is the midpoint of a concentration-inhibition curve.

The target of one test is T1, human rec ACSS2 (Homo sapiens, UniProt Q9NR19).
T1 construct: myc (C); purchased Origene
The test is described as follows: Biochemical activity ACSS2 assay (AMP-Glo). The conditions noted are these: human recombinant ACSS2, AMP-Glo, 180 min at 37° C. On the procedure:
The biochemical activity assay for ACSS2 is based on the detection of released AMP by AMP-Glo ™ Assay kit (Promega, Madison). The assay is run in three steps: the enzymatic reaction in which human rec ACSS2 activates acetate with ATP and Coenzyme A as cosubstrates to acetyI-coA thereby releasing AMP and the detection reaction of AMP by AMP Glo assay in which after the destruction of the residual ATP with AMP Glo reagent 1 produced AMP is converted to ATP that is measured in a luciferase assay system (detection reagent). The ACSS2 activity correlates with the detected luminescence signal.
The assay was performed in Perkin Elmer 384well white Proxiplates in a total volume of 8 µl.
1 nM (fc) C-term myc tagged ACSS2 (human, recombinant, Origene, Rockville, US) and a mixture of 100 µM (fc) ATP, 100 µM (fc) Coenzyme A and 500 µM (fc) sodium acetate were incubated in a total volume of 5 µl (50 mM Hepes, 1 mM Mg-chloride, 150 mM NaCl, 1 mM DTT, 0.01 % (w/v) BSA, 0.3 % DMSO, pH 7.5) in the absence or presence of the test compound (10 dilution concentrations, start conc 30 µM) for 180 min at 37° C. The reaction was stopped and residual ATP destroyed by the addition of 1 µl AMP Glo reagent solution (Promega, Madison, US). After 1 h incubation at room temperature 2 µl of AMP Glo detection reagent was added and the assay was incubated for 0.75 hr at room temperature. The luminescence signal was measured with an Envision multimode reader (Perkin Elmer LAS Germany GmbH) at 700 nm in luminescence mode. The full value used was the inhibitor-free reaction. The pharmacological zero value was generated by addition of ACSS2 inhibitor (Ac-CoA Synthase Inhibitor - CAS 508186-14-9 -Calbiochem) in a final concentration of 5 µM. The inhibitory values (IC50) were determined using the program Assay Analyzer® from GeneData.

For the next test, the target named is T2, ACSS2 (Homo sapiens, UniProt Q9NR19).
T2 construct: endogenous fatty acid synthesis activity in the human HCT-15 cancer cell line; endogenous in cells; host or cells: HCT-15
The test is described as follows: Cellular assay of 14C acetate incorporation into histones (IC50 ACSS2 cellular histone). Conditions: HCT-15 cells. Format: cell-based. On the procedure: This protocol describes a cellular assay capable to quantify endogenous histone acetylation activity in the human HCT-15 cancer cell line following the incorporation of extracellularly administered radiolabeled ^14C acetate with a scintillation based read out on acid extracted histones.
HCT-15 cells are trypsinized, washed and suspended in DMEM culture medium supplemented with penicillin/streptomycin (100 U/mL), sodium pyruvate (1 mM), and 10% FBS
Compounds serial dilutions are prepared in 96-well V-bottom microplate from 10 mM stock solutions in DMSO. From these dilutions 0.5 µl are transferred to a fresh plate including pure DMSO as negative control. The dilutions are prepared such, that the final concentration in the assay is 1/400 of the concentration in the serial dilution. The final DMSO concentration in the assay is 0.25 %.
The cell suspension is seeded at densities of 2x10^5 cells per 170 µl into individual wells of a 96 well plate each containing 0.5 µl aliquots of compound serial dilutions and are kept for 1h in a cell incubator. To each well 30 µL of a mixture containing 0.5 mCi/mL of ^14C-acetate with full medium are added. Then, the wells are incubated for 3 hrs in the cell incubator.
Further steps of the procedure should be conducted on ice or instrumentations precooled to 4° C. Cells are sedimented in the 96-well V-bottom microplate by centrifugation (Eppendorf 5804 R) at 1200 rpm for 5 min. The supernatant is removed and the cells are washed twice with 200µL of PBS-NaB (5 mM sodium butyrate) buffer by iterative resuspension and centrifugation. Finally, the cells are resuspended in 50 µL of TEB (PBS-NaB + 0.5 % Triton X-100) and left on ice for 10 minutes. After centrifugation at 2300 rpm for 10 minutes at 4° C. the supernatant is removed, the remaining pellet is suspended in 50 µL of 0.2 M HCl and incubated over night at 4° C. After incubation the well plate is shaken for 2 minutes in a MTP plate shaker set to 1200 rpm and then centrifuged at 3700 rpm for 10 mins. The lysate is carefully aspirated (~43 µL) and transferred into a white MTP plate (Greiner bio-one 65509). 90 µL of Ultima Gold XR scintillation cocktail are added and the plates are sealed with a transparent cover tape before mixing vigorously using plate shaker set to 1200 rpm. Radioactivity from ^14C incorporation in the wells is measured as CPM count in a MicroBeta Trilux luminescence counter.

T2 sequence (Q9NR19 whole entry): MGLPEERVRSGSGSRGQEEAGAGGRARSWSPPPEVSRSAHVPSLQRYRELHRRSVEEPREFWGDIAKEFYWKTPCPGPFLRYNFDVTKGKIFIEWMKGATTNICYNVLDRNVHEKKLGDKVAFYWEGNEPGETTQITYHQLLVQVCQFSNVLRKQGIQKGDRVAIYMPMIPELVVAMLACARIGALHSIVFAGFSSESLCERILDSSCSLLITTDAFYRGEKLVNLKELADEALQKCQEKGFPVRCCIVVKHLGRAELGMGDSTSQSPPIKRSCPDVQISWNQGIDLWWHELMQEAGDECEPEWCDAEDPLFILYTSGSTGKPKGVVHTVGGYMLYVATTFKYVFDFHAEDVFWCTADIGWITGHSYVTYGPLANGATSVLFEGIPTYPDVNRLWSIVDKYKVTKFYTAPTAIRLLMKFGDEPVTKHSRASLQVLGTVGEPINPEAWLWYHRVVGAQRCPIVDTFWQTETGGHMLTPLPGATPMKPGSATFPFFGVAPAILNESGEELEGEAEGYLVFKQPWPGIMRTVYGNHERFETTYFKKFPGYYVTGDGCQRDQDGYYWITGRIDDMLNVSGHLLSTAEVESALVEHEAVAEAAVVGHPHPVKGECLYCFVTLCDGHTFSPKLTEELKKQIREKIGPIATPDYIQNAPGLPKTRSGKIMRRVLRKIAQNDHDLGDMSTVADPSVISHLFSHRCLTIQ
T1 sequence (Q9NR19 whole entry): as above

For `CCn1cc(NC(=O)c2cc3c(nc2Cl)nc(C(O)(c2ccccc2F)c2ccccc2F)n3CC)cn1` [Compound 101, 2-[bis(2-fluorophenyl)(hydroxy)methyl]-5-chloro-1-ethyl-N-(1-ethyl-1H-pyrazol-4-yl)-1H-imidazo[4,5-b]pyridine-6-carboxamide], the IC50 was in the range of 1 to 10 nM on human rec ACSS2 and 0.01 to 1 nM on ACSS2.

On to `CCn1cc(NC(=O)c2cc3c(nc2Cl)nc(C(O)(c2ccccc2)c2ccc(OC(F)F)cc2F)n3CC)cn1` (single isomer, unassigned) [Compound 74], for which the IC50 at human rec ACSS2 and at ACSS2 was 1 to 10 nM each time.

For the molecule `CCn1cnc(NC(=O)c2cc3c(nc2OC)nc(C(O)(c2ccccc2)c2ccc(OC(F)F)cc2)n3CC)n1` (single isomer, unassigned) [Compound 72], the results for the IC50 on human rec ACSS2 and against ACSS2 were 1 to 10 nM and 0.01 to 1 nM, respectively.

Consider `CCn1cnc(NC(=O)c2cc3c(nc2OC)nc(C(O)(c2ccccc2)c2ccc(OC(F)F)cc2F)n3CC)n1` (racemic) [Compound 78, 2-{[4-(difluoromethoxy)-2-fluorophenyl](hydroxy)phenylmethyl}-1-ethyl-N-(1-ethyl-1H-1,2,4-triazol-3-yl)-5-methoxy-1H-imidazo[4,5-b]pyridine-6-carboxamide], for which the 50% inhibitory concentration (IC50) lay in the range of 1 to 10 nM at human rec ACSS2 and 0.01 to 1 nM against ACSS2.

Regarding `CCn1cc(NC(=O)c2cnc3nc(C(O)(c4ccccc4)c4ccccc4)n(CC)c3c2)cn1` [Compound 113, 1-ethyl-N-(1-ethyl-1H-pyrazol-4-yl)-2-(hydroxydiphenylmethyl)-1H-imidazo[4,5-b]pyridine-6-carboxamide], the IC50 on human rec ACSS2 and against ACSS2 was 10 to 100 nM each time.

As for `CCn1cnc(NC(=O)c2cc3c(nc2OC)nc(C(O)(c2ccccc2)c2cccnn2)n3CC)n1` (racemic) [Compound 45, 1-ethyl-N-(1-ethyl-1H-1,2,4-triazol-3-yl)-2-[hydroxy(phenyl)(pyridazin-3-yl)methyl]-5-methoxy-1H-imidazo[4,5-b]pyridine-6-carboxamide], the IC50 at human rec ACSS2 and on ACSS2 was 1 to 10 nM each time.

As to `CCn1cnc(NC(=O)c2cc3c(nc2OC)nc(C(O)(c2ccccc2)c2cnn(C)c2)n3CC)n1` (racemic) [Compound 48, 1-ethyl-N-(1-ethyl-1H-1,2,4-triazol-3-yl)-2-[hydroxy(1-methyl-1H-pyrazol-4-yl)phenylmethyl]-5-methoxy-1H-imidazo[4,5-b]pyridine-6-carboxamide], the IC50 on human rec ACSS2 and on ACSS2 was 100 to 10000 nM each time.

As for `CCn1cc(NC(=O)c2cc3c(nc2OC)nc(C(O)(c2ccccc2)c2ccccc2)n3CC)cn1` [Compound 105, 1-ethyl-N-(1-ethyl-1 H-pyrazol-4-yl)-2-(hydroxydiphenylmethyl)-5-methoxy-1 H-imidazo[4,5-b]pyridine-6-carboxamide], the IC50 at human rec ACSS2 and against ACSS2 was 1 to 10 nM in each case.

For `CCn1cnc(NC(=O)c2cc3c(nc2OC)nc(C(O)(c2ccccc2)c2ccncn2)n3CC)n1` (racemic) [Compound 42, 1-ethyl-N-(1-ethyl-1H-1,2,4-triazol-3-yl)-2-[hydroxy(phenyl)(pyrimidin-4-yl)methyl]-5-methoxy-1H-imidazo[4,5-b]pyridine-6-carboxamide], the IC50 on human rec ACSS2 is 10 to 100 nM; against ACSS2 it was 1 to 10 nM.

On to `CCn1cnc(NC(=O)c2cc3c(nc2OC)nc(C(O)(c2ccccn2)c2cccs2)n3CC)n1` (racemic) [Compound 43, 1-ethyl-N-(1-ethyl-1H-1,2,4-triazol-3-yl)-2-[hydroxy(pyridin-2-yl)(thiophen-2-yl)methyl]-5-methoxy-1H-imidazo[4,5-b]pyridine-6-carboxamide], for which the IC50 at human rec ACSS2 and on ACSS2 was 10 to 100 nM each time.

For `CCn1cnc(NC(=O)c2cc3c(nc2OC)nc(C(O)(c2ccc(OC(F)F)cc2)c2ccccc2F)n3CC)n1` (racemic) [Compound 87, 2-{[4-(difluoromethoxy)phenyl](2-fluorophenyl)hydroxymethyl}-1-ethyl-N-(1-ethyl-1H-1,2,4-triazol-3-yl)-5-methoxy-1H-imidazo[4,5-b]pyridine-6-carboxamide], the IC50 at human rec ACSS2 and on ACSS2 was 1 to 10 nM in each case.

As to `CCn1cc(NC(=O)c2cc3c(nc2Cl)nc(C(O)(c2ccccc2)c2ccc(OC(F)F)cc2F)n3CC)cn1` (racemic) [Compound 81, 5-chloro-2-{[4-(difluoromethoxy)-2-fluorophenyl](hydroxy)phenylmethyl}-1-ethyl-N-(1-ethyl-1H-pyrazol-4-yl)-1H-imidazo[4,5-b]pyridine-6-carboxamide], the half-maximal inhibitory concentration (IC50) at human rec ACSS2 lay within 1 to 10 nM; against ACSS2, 10 to 100 nM.

In the case of `CCn1cc(NC(=O)c2cc3c(nc2OC)nc(C(O)(c2ccccc2)c2ccc(OC(F)F)cc2F)n3CC)cn1` (racemic) [Compound 79, 2-{[4-(difluoromethoxy)-2-fluorophenyl](hydroxy)phenylmethyl}-1-ethyl-N-(1-ethyl-1H-pyrazol-4-yl)-5-methoxy-1H-imidazo[4,5-b]pyridine-6-carboxamide], the figures for the IC50 at human rec ACSS2 and against ACSS2 were 10 to 100 nM and 1 to 10 nM, respectively.

`CCn1cnc(NC(=O)c2cc3c(nc2C)nc(C(O)(c2ccccc2F)c2ccc(OC(F)F)cc2F)n3CC)n1` (single isomer, unassigned) [Compound 95]: the half-inhibitory concentration (IC50) on human rec ACSS2 and at ACSS2 was 10 to 100 nM each time.

For `CCn1cc(NC(=O)c2cnc3nc(C(O)(c4ccccc4F)c4ccccc4F)n(CC)c3c2)cn1` [Compound 112, 2-[bis(2-fluorophenyl)(hydroxy)methyl]-1-ethyl-N-(1-ethyl-1H-pyrazol-4-yl)-1H-imidazo[4,5-b]pyridine-6-carboxamide], the IC50 at human rec ACSS2 and against ACSS2 was 10 to 100 nM throughout.

Regarding `CCn1cnc(NC(=O)c2cc3c(nc2C)nc(C(O)(c2ccccc2F)c2ccc(OC(F)F)cc2F)n3CC)n1` (single isomer, unassigned) [Compound 96], the IC50 on human rec ACSS2 lay in the range of 1 to 10 nM; at ACSS2, 10 to 100 nM.

In the case of `CCn1cnc(NC(=O)c2cc3c(nc2OC)nc(C(O)(c2ccccc2)c2ncccn2)n3CC)n1` (racemic) [Compound 49, 1-ethyl-N-(1-ethyl-1H-1,2,4-triazol-3-yl)-2-[hydroxy(phenyl)(pyrimidin-2-yl)methyl]-5-methoxy-1H-imidazo[4,5-b]pyridine-6-carboxamide], the IC50 at human rec ACSS2 lay within 10 to 100 nM; against ACSS2, 1 to 10 nM.

On to `CCn1cnc(NC(=O)c2cc3c(nc2Cl)nc(C(O)(c2ccccc2F)c2ccccc2F)n3CC)n1` [Compound 100, 2-[bis(2-fluorophenyl)(hydroxy)methyl]-5-chloro-1-ethyl-N-(1-ethyl-1H-1,2,4-triazol-3-yl)-1H-imidazo[4,5-b]pyridine-6-carboxamide], for which the IC50 was 0.01 to 1 nM on human rec ACSS2 and 1 to 10 nM against ACSS2.

`CCn1cc(NC(=O)c2cc3c(nc2OC)nc(C(O)(c2ccc(OC(F)F)cc2)c2ccccc2F)n3CC)cn1` (racemic) [Compound 88, 2-{[4-(difluoromethoxy)phenyl](2-fluorophenyl)hydroxymethyl}-1-ethyl-N-(1-ethyl-1H-pyrazol-4-yl)-5-methoxy-1H-imidazo[4,5-b]pyridine-6-carboxamide]: the IC50 on human rec ACSS2 and at ACSS2 was 10 to 100 nM in each case.

The values above are taken from patent US20230271956A1, “AMIDE DERIVATIVES” (Merck Patent GmbH, priority 2020, published 2023).
